We go through 7 compounds from article PMC3728351, “Allosteric Inhibitors of the NS3 Protease from the Hepatitis C Virus” (PLoS ONE, 2013).

Data set [1] addresses T1, NS3 protease S139A/D168A (Hepatitis C virus genotype 1b, UniProt P26663, D1194A/S1165A).
T1 construct: The N-terminal domain from full-length NS3 protein corresponding to NS3 protease was expressed and purified; made in house
As to the kind of experiment: ITC binding to Zn^+2-free NS3 protease, S139A/D168A. To be noted: 25°C, 100 mM sodium acetate, 2 mM EDTA, pH 5; relative error 15%. As to the method:
(§1) The N-terminal domain from full-length NS3 protein corresponding to NS3 protease was expressed and purified as described elsewhere, [18].
(§2) Ligand binding to NS3 protease was determined with a high-sensitivity isothermal titration VP-ITC microcalorimeter (MicroCal, USA). Protein samples and reference solutions were properly degassed and carefully loaded into the cells to avoid bubble formation during stirring. Experiments were performed with freshly prepared buffer-exchanged protein solutions, at 25°C in 100 mM sodium acetate, 2 mM EDTA, pH 5. NS3 protease 20 µM solution in the calorimetric cell was titrated with compound 300 µM solution. Control experiments were performed under the same experimental conditions, except for the presence of zinc (no addition of EDTA). The heat evolved after each ligand injection was obtained from the integral of the calorimetric signal. The heat due to the binding reaction was obtained as the difference between the reaction heat and the corresponding heat of dilution, the latter estimated as a constant heat throughout the experiment, and included as an adjustable parameter in the analysis. The association constant (Ka) and the enthalpy change (ΔH) were obtained through non-linear regression of experimental data to a model for a protein with a single ligand binding site. Data were analyzed using software developed in our laboratory implemented in Origin 7 (OriginLab, USA).
(§3) NS3 protease wild-type, pseudo-wild-type (containing the inactivating mutation S139A) and several variants containing drug-resistance associated mutations (R155K, R155Q, A156T, and D168A) were employed for determining the impact of these mutations on the interaction of the selected compounds with the protein (change in dissociation constant).

Data set [2] concerns the target T2, NS3 protease S139A/R155K (Hepatitis C virus genotype 1b, UniProt P26663, R1181K/S1165A).
T2 construct: The N-terminal domain from full-length NS3 protein corresponding to NS3 protease was expressed and purified; made in house
As to the kind of experiment: ITC binding to Zn^+2-free NS3 protease, S139A/R155K. To be noted: 25°C, 100 mM sodium acetate, 2 mM EDTA, pH 5; relative error 15%. As to the method: as §1, §2, §3

Data set [3] addresses T3, NS3 protease S139A/A156T (Hepatitis C virus genotype 1b, UniProt P26663, A1182T/S1165A).
T3 construct: The N-terminal domain from full-length NS3 protein corresponding to NS3 protease was expressed and purified; made in house
Nature of the data set: ITC binding to Zn^+2-free NS3 protease, S139A/A156T. Conditions: 25°C, 100 mM sodium acetate, 2 mM EDTA, pH 5; relative error 15%. As to the method:
as §1, §2, §3

Data set [4] is described as follows: in vitro. Format: cell-based. Conditions: human. On the procedure:
Serial dilutions of the test compounds in complete DMEM (without G418) were added 24 hours after seeding. Cells were allowed to proliferate for 3 days at 37°C, after which the cell number was determined by CellTiter 96 AQueous One Solution Cell Proliferation Assay (Promega Corporation).

Data set [5] concerns the target T4, NS3 protease S139A (pseudo-wild-type) (Hepatitis C virus genotype 1b, UniProt P26663, S1165A).
T4 construct: The N-terminal domain from full-length NS3 protein corresponding to NS3 protease was expressed and purified; made in house
As to the kind of experiment: ITC binding to Zn^+2-free NS3 protease, pseudo-wild-type S139A. Conditions: 25°C, 100 mM sodium acetate, 2 mM EDTA, pH 5; relative error 15%. As to the method:
as §1, §2, §3

Data set [6] concerns genotype 1b Con1 HCV subgenomic replicons (Huh 5-2). Nature of the data set: microbe, parasite or virus in culture. Conditions: for EC50: Hepatitis C virus, GETYPE1B, Huh-5-2, 72 h, read-out: EC50, effective concentration 50%. On the procedure:
The highly permissive cell clone Huh 7-Lunet, as well as Huh 7 cells containing subgenomic HCV replicons I389luc-ubi-neo/NS3-3′/5.1 (Huh 5-2), I377NS3-3′/wt (Huh 9-13) or I389/hygro-ubi-NS3-3/5.1 (a kind gift from Dr. V. Lohmann and Dr. R. Bartenschlager) have been described recently [25]-[28]. Cells were grown in Dulbecco’s modified Eagle’s medium (DMEM; Gibco, Belgium) supplemented with 10% heat-inactivated fetal bovine serum (PAN-Biotech GmbH, Germany), 1X non-essential amino acids (Gibco), 100 IU/mL penicillin (Gibco), 100 µg/mL streptomycin (Gibco), and 250 µg/mL geneticin (G418; Gibco).
Antiviral assays for assessing the efficacy of the selected compounds were performed as described in literature [23]–[28]. Briefly, Huh 5-2 cells were seeded at a density of 5⋅10^3 cells per well in a tissue culture-treated white 96-well view plate (Techno Plastic Products AG, Switzerland) in complete DMEM supplemented with 250 µg/mL G418. […] After 3 days of incubation at 37°C cell culture medium was removed and luciferase activity was determined using the Bright-Glo™ Luciferase Assay System (Promega Corporation, The Netherlands). The luciferase signal was measured using a Synergy HT Multimode Reader (BioTek Instruments Inc, USA).

Data set [7] has as its target T5, NS3 protease S139A/R155Q (Hepatitis C virus genotype 1b, UniProt P26663, R1181Q/S1165A).
T5 construct: The N-terminal domain from full-length NS3 protein corresponding to NS3 protease was expressed and purified; made in house
Nature of the data set: ITC binding to Zn^+2-free NS3 protease, S139A/R155Q. Conditions: 25°C, 100 mM sodium acetate, 2 mM EDTA, pH 5; relative error 15%. As to the method: as §1, §2, §3

The target in data set [8] is T6, NS3 protease wild-type (Zn^+2-free) (Hepatitis C virus genotype 1b, UniProt P26663).
T6 construct: The N-terminal domain from full-length NS3 protein corresponding to NS3 protease was expressed and purified; made in house
T6 sequence (P26663 1027-1208): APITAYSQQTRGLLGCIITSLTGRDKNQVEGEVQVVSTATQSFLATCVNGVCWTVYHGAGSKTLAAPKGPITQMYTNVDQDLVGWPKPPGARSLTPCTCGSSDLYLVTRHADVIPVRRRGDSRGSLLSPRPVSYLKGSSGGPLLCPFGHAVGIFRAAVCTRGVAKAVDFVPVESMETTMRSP
Nature of the data set: biochemical. Format: binding. On the procedure: as §1, §2, §3

Data set [9] has as its target NS3 protease. To be noted: read-out: apparent dissociation constant for the NS3-zinc interaction; cited from earlier work.
Data set [10] deals with NS3 protease. Conditions: read-out: dissociation constant for the NS3-zinc interaction; ITC, pH 5; cited from earlier work.
For data set [11], the system named is NS3 protease. Conditions: pH 7.5; cited from earlier work.
For data set [12], the system named is NS3 protease. Conditions: assuming pseudo-first order association, from kobs of ref 23.
The mark [13] stands for this setting: Huh 5-2 cells, 3 days proliferation, relative error 15%.
[14] abbreviates: ratio of CC50 to EC50 in Huh 5-2 cells.

Where two headings read alike, the source gives them in different places. Some results are limits rather than exact numbers.

T3 sequence (P26663 1027-1208 S1165A/A1182T): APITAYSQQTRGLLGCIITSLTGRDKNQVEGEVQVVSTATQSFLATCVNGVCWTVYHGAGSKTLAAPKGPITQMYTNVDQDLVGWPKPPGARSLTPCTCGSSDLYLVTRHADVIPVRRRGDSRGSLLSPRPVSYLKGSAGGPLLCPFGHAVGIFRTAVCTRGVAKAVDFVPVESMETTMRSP
T5 sequence (P26663 1027-1208 S1165A/R1181Q): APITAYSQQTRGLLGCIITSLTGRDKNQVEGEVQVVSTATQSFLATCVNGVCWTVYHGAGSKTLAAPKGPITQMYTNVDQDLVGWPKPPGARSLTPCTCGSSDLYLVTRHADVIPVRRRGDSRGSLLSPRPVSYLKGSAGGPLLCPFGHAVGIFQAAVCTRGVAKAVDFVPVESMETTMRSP
T4 sequence (P26663 1027-1208 S1165A): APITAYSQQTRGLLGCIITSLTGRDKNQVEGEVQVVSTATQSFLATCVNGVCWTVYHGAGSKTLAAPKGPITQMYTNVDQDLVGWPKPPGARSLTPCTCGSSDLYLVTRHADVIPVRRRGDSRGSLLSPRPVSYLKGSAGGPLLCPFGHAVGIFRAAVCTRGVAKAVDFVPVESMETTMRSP
T1 sequence (P26663 1027-1208 S1165A/D1194A): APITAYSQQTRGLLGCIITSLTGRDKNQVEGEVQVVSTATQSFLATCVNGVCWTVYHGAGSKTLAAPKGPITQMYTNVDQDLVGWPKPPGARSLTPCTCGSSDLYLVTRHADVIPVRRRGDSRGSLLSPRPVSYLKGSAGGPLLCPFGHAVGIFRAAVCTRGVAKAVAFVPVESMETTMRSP
T2 sequence (P26663 1027-1208 S1165A/R1181K): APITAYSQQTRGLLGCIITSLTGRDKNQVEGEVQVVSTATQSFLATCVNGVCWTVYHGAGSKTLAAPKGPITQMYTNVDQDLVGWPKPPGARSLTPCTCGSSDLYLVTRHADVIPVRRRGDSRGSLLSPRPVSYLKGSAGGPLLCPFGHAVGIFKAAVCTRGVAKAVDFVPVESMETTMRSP

By CC50 is commonly meant the concentration that lowers cell viability or growth by half. Read a high CC50 as lower toxicity to the cells. `Nc1c2c(nc3ccccc13)CCCC2` [Compound 5]: the Kd in data set [1] is 8.5 µM; in [2] it was 5.9 µM; in [3], 27 µM; in data set [5] it was 5.5 µM; in [7], 32 µM; in [8], 1.7 µM. This compound also had a CC50 in data set [4] greater than 120 µM. Moreover, the CC50/EC50 in [6] is greater than 2. In [6], the EC50 turned out to be 60 µM.
On to `COC(=O)[C@H]1[C@H]2C[C@@H]3c4[nH]c5cc(OC)ccc5c4CCN3C[C@H]2C[C@@H](OC(=O)/C=C/c2cc(OC)c(OC)c(OC)c2)[C@@H]1OC` [Compound 6], for which the Kd in [1] came to 36 µM; in data set [2], 61 µM; in data set [3], 45 µM; in [5], 24 µM; in data set [7], 23 µM; in data set [8], 40 µM. In data set [4] (setting [13]), this compound returned a CC50 greater than 120 µM. For the same compound, the EC50 in [6] was determined as 20 µM. In addition, in [6] (setting [14]), the CC50/EC50 is listed as greater than 6.
Regarding `COC(=O)Nc1nc2ccc(C(=O)c3cccs3)cc2[nH]1` [Compound 1], the Kd came to 2.6 µM in data set [1], 5.3 µM in data set [2], 6.5 µM in data set [5] and 1.9 µM in data set [8]. Further, the CC50 in [4] (setting [13]) is greater than 120 µM. In data set [6], the EC50 is 0.03 µM. Moreover, in data set [6] (setting [14]), the CC50/EC50 is greater than 4000.
Turning to `CC(=O)C1CCC2C3C=CC4=CC(=O)CCC4(C)C3CCC12C` (centres unmarked) [Compound 7], the Kd in data set [1] is 6.5 µM; in data set [2] it was 16 µM; in [3] it was 5.8 µM; in data set [5], 5.7 µM; in [7], 4.2 µM; in data set [8], 16 µM. Further, in data set [4] (setting [13]), the CC50 is greater than 120 µM. The EC50 in data set [6] is 2 µM. The CC50/EC50 in data set [6] (setting [14]) is greater than 60.
For the compound `CC[C@@]1(O)C(=O)OCc2c1cc1n(c2=O)Cc2cc3ccccc3nc2-1` [Compound 3], the CC50 at 3 days in [4] (setting [13]) worked out at 8 µM. Moreover, the EC50 in data set [6] turned out to be 0.03 µM. For the same compound, the Kd in data set [8] was found to be 2.5 µM.
In general, kon refers to the second-order rate constant of association. Read a low kon as slow association. In the case of zinc, the Kd in data set [9] was roughly 1 µM; in data set [10], 0.5 µM. Also, in [11], the “apparent association rate constant, kobs” value is recorded as “around 0.014 s^−1”. Besides, in data set [12], the kon was less than 1400 M⁻¹ s⁻¹.
Regarding `CCOc1ccc(Cc2nccc3cc(OCC)c(OCC)cc23)cc1OCC` [Compound 8], the Kd in data set [1] was 16 µM; in data set [2], 9.2 µM; in data set [3], 22 µM; in data set [5], 34 µM; in data set [7], 42 µM; in data set [8], 31 µM. Also, the CC50 in data set [4] (setting [13]) was determined as 60 µM. Further, the EC50 in data set [6] was found to be 4 µM. Also, in [6] (setting [14]), the CC50/EC50 amounted to 15.
